From patent US5856506A, “Phosphatase inhibitors and methods of use thereof” (University of Pittsburgh, priority 1997, dated 1999)

Assays:
Assay type in all cases: biochemical
Recombinant human CDC25B = assay: CDC25B phosphatase assay, GST fusion protein, fluorescein diphosphate; settings: none = 100; 1 hour preincubation; concentration not given (0.3-100 μM tested)
Protocol: The compounds of the present invention are also capable of inhibiting dual specificity phosphatases, for example CDC25A and CDC25B. Phosphatases CDC25A and CDC25B are disclosed in U.S. Pat. No. 5,441,880. Inhibition of dual specificity phosphatases is defined herein as inhibition of the activity of CDC25A and/or CDC25B at a concentration of 100 μM of the inhibitor compound. In a preferred embodiment, the activity of the phosphatase is inhibited by at least 10%. In more preferred embodiments, the activity of the phophatase is inhibited by at least 25%, or even more preferably, by at least 50%. The ability of the compounds of the present invention to inhibit the phosphatases can be determined by measuring the effect of the compounds on the ability of CDC25 or CDC25B to dephosphorylate a substrate. Appropriate methods are known to those of ordinary skill in the art, and include, for example, calorimetric assays. A suitable assay is described in U.S. Pat. No. 5,441,880, the disclosure of which is incorporated herein by reference. […] The assay may be performed as a rapid calorimetric microtitration plate assay.
Compounds 1a-1r were assessed for ability to inhibit CDC25A and CDC25B activity. Recombinant human CDC25A and CDC25B were obtained as a glutahione-S-transferase (GST) fusion protein using human cDNA and standard molecular biological methods. The cDNA constructs are in a plasmid that is expressed in E. coli under the control of isopropyl-beta-D-[…] (IPTG). The bacterial pellet was disrupted by sonication, and centrifuged at 10,000×g. Using glutathione-agarose beads, the fusion protein was purified from postmicrosomal supernant fraction as described by Baratte et al. (1992) Anticancer Res. 12: 873-880. Phosphatase activity was assayed with a spectrofluorimeter under the following conditions: 1 unit (1 U=amount of protein that induces 33 fluoresence units/minute of product) of fusion protein in a final incubation mixture (150 μL) comprised of 25 mM Tris (pH=8.0), 5 mM EDTA, 33 μg/ml BSA, and 20 μM fluorescein diphosphate in 96-well microtiter plates. Plates were preincubated for 1 hour with 0 (control), 0.3, 1, 3, 10, 30, 100 μM compounds at room temperature. After the 1 hour incubation at room temperature, fluorescence of the fluorescein product (Ex. 485 nm; Em. 530 nm) were measured with a Biosystems Cytofluor II (Framingham, Mass.).

PP2A = PP2A (Bos taurus, UniProt P67774); assay: Phosphatase activity by [32P] release from phosphorylase-a or phosphohistone (Honkanen method); settings: 100 μM inhibitor; none = 100; read-out: PP2A, percent inhibition relative to control (100%)
Protocol: (§1) It has been found in accordance with the present invention that compounds of formula I are capable of inhibiting serine/threonine protein phosphatases. Inhibition of serine/threonine protein phosphatases is defined herein as inhibition of the activity of one or more of PP1, PP2A or PP3 at a concentration of 100 μM or less of the inhibitor compound. In a preferred embodiment, the activity of the phosphatase is inhibited by at least 10%. In more preferred embodiments, the activity of the phophatase is inhibited by at least 25%, or even more preferably, by at least 50%. Inhibition of PP1, PP2A or PP3 can be assessed by methods known to one of ordinary skill in the art. Suitable assays are described, for example by Honkanen et al. (1994) Toxicon 32:339 and Honkanen et al. (1990) J. Biol. Chem. 265: 19401, the disclosures of which are incorporated herein by reference. Briefly, phosphatase activity is determined by quantifying the [^32 p] released from a ^32 p-labeled substrate such as phosphohistone or phosphorylase-a. Decreased [^32 p] release in the presence of the compounds of the present invention relative to control samples provides a measure of the ability of the compounds of the invention to inhibit PP1, PP2A or PP3.
(§2) Phosphatase activity and the inhibitory activity of the compounds of Table 1 were determined by the method of Honkanen et al. (1994) Toxicon 32:339. Briefly, phosphatase activity against phosphorylase-a or phosphohistone was 25 determined by the quantification of liberated [^32 p]. Assays, 80 μl total volume, containing 50 mM Tris-HCl, pH 7.4, 0.5 mM DTT, 1 mM EDTA (assay buffer) and [^32 p]phosphoprotein (1-2 μM PO4), were conducted as described previously (Honkanen et al., 1991 Mol. Pharmac. 40:577). Dephosphorylation reactions were routinely conducted for 5-10 min. using phosphorylase-a as a substrate and for 10-20 min. using phosphohistone. In all assays the dephosphorylation of substrate was kept to less than 10% of the total phosphorylated substrate available, and the reactions were adjusted to ensure that enzyme activity was linear with respect to enzyme concentration and time. [^32 p]Phosphate liberated by the enzymes was extracted as a phosphomolybdate complex and measured according to the methods of Killilea et al. (1978) Arch. Biochem. Biophys. 191:638. Inhibition of protein phosphatase activity by inhibitors was determined by adding the 100 μM of inhibitors to the enzyme mixture 5-10 min. prior to initiating the reaction with the addition of substrate.

PP3 = assay: as above; settings: 100 μM inhibitor; none = 100
Protocol: as §1, §2

PP1 = assay: as above; settings: 100 μM inhibitor; none = 100
Protocol: as §1, §2

Chain of PP2A (P67774 whole entry): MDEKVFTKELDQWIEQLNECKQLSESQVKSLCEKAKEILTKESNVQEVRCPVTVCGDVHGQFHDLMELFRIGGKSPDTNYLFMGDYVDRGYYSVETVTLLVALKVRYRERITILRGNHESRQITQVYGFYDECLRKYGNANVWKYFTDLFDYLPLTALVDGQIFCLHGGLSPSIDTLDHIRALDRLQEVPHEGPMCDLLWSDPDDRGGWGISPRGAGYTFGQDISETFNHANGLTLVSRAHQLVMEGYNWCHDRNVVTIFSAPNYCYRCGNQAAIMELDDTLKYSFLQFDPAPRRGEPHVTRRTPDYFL

SMILES | CDC25B activity remaining, percent of control (Recombinant human CDC25B) [%] | PP2A remaining activity, % of control at 100 µM (PP2A) [%] | PP3 remaining activity, percent of control (PP3) [%] | PP1 remaining activity, percent of control (PP1) [%]
CCCCCCN(CCNC(=O)c1nc(-c2ccccc2)oc1C)C(=O)CCC(NC(=O)C=Cc1ccccc1)C(=O)O (stereo not shown) [Compound 1n] | 66 | 87 | 26 | 40
CN(CCNC(=O)c1nc(-c2ccccc2)oc1-c1ccccc1)C(=O)CCC(NC(=O)C=Cc1ccccc1)C(=O)O (stereo not shown) [Compound 1p] | 87 | 99 | 68 | 65
CCCCCCN(CCNC(=O)c1nc(-c2ccccc2)oc1-c1ccccc1)C(=O)CCC(NC(=O)C=Cc1ccccc1)C(=O)O (stereo not shown) [Compound 1q] | 62 | 60 | 28 | 85
CCCCCCN(CCNC(=O)c1nc(-c2ccccc2)oc1-c1ccccc1)C(=O)CCC(NC(=O)CCc1ccccc1)C(=O)O (stereo not shown) [Compound 1k] | 76 | 67 | 24 | 48
CN(CCNC(=O)c1nc(-c2ccccc2)oc1-c1ccccc1)C(=O)CCC(NC(=O)CCc1ccccc1)C(=O)O (stereo not shown) [Compound 1j] | 90 | 72 | 38 | 80
Cc1oc(-c2ccccc2)nc1C(=O)NCCN(Cc1ccccc1)C(=O)CCC(NC(=O)C=Cc1ccccc1)C(=O)O (stereo not shown) [Compound 1o] | 66 | 88 | 13 | 64
CCCCCCCCCC(=O)NC(CCC(=O)N(CCNC(=O)c1nc(-c2ccccc2)oc1C)Cc1ccccc1)C(=O)O (stereo not shown) [Compound 1c] | 42 | 129 | 28 | 
Cc1oc(-c2ccccc2)nc1C(=O)NCCN(C)C(=O)CCC(NC(=O)CCc1ccccc1)C(=O)O (stereo not shown) [Compound 1g] | 61 | 109 | 21 | 53
CCCCCCCCCC(=O)NC(CCC(=O)N(C)CCNC(=O)c1nc(-c2ccccc2)oc1C)C(=O)O (stereo not shown) [Compound 1a] | 106 | 100 | 76 | 121
CCCCCCCCCC(=O)NC(CCC(=O)N(CCCCCC)CCNC(=O)c1nc(-c2ccccc2)oc1-c1ccccc1)C(=O)O (stereo not shown) [Compound 1e] | 17 | 152 | 71 | 153
CCCCCCCCCC(=O)NC(CCC(=O)N(CCCCCC)CCNC(=O)c1nc(-c2ccccc2)oc1C)C(=O)O (stereo not shown) [Compound 1b] | 44 | 135 | 32 | 59
Cc1oc(-c2ccccc2)nc1C(=O)NCCN(Cc1ccccc1)C(=O)CCC(NC(=O)CCc1ccccc1)C(=O)O (stereo not shown) [Compound 1i] | 63 | 80 | 14 | 
Cc1oc(-c2ccccc2)nc1C(=O)NCCN(C)C(=O)CCC(NC(=O)C=Cc1ccccc1)C(=O)O (stereo not shown) [Compound 1m] | 45 | 108 | 60 | 111
O=C(C=Cc1ccccc1)NC(CCC(=O)N(CCNC(=O)c1nc(-c2ccccc2)oc1-c1ccccc1)Cc1ccccc1)C(=O)O (stereo not shown) [Compound 1r] | 56 | 68 | 15 | 53
O=C(CCc1ccccc1)NC(CCC(=O)N(CCNC(=O)c1nc(-c2ccccc2)oc1-c1ccccc1)Cc1ccccc1)C(=O)O (stereo not shown) [Compound 1l] | 69 | 69 | 22 | 59
